These results are taken from patent publication US10626092B2, “Polymorphic forms of 3-[(2-butyl-1-(2-diethylamino-ethyl)-1H-benzoimidazol-5-yl]-N-hydroxy-acrylamide and uses thereof” (MEI PHARMA, INC., priority 2016, dated 2020).

Structures are written as SMILES. Where a name gives a salt, the structure may show the parent alone.

Holding throughout (format): physicochemical
The nature of series [1]: Physical stability under accelerated aging conditions (40° C./70% RH), physical form re-determined by HT-XRPD. How it is done: Solids were analyzed for their physical stability under accelerated aging conditions (40° C./70% RH) for 48 hours. After the exposure, the physical form was determined again by HT-XRPD analysis. The physico-chemical characterization of the forms was done by TGMS analysis to determine the solvation state of the form and thermal events and by DSC analysis to confirm the thermal events observed in the SDTA signal of the TGA. (See Examples for details.)
Suspensions of 3-[2-butyl-1-(2-diethylamino-ethyl)-1H-benzoimidazol-5-yl]-N-hydroxy-acrylamide dihydrochloride monohydrate (Form 1) and 2.5 hydrate (Form 3) were prepared in 12 process relevant solvent systems. The suspensions were cycled between 5° C. and 50° C. followed by aging at 25° C. for 72 hours. […] Upon completion of the incubation time, the solids were collected, dried under ambient conditions and dried under deep vacuum before being analyzed by HT-XRPD. All the measured solids were exposed to accelerated ageing conditions (2 days at 40° C./70% RH) followed by re-analysis by HT-XRPD.
Long-term slurry conversion experiments were carried out by preparing suspensions of 3-[2-butyl-1-(2-diethylamino-ethyl)-1H-benzoimidazol-5-yl]-N-hydroxy-acrylamide dihydrochloride 2.5 hydrate (Form 3) and monohydrate (Form 1) in 12 different solvents and solvent mixtures. Approximately 30 mg of the specific form was dosed in a standard HPLC vial and aliquots of 100 μL of solvent until a suspension was formed. The suspensions were stirred for 2 weeks at room temperature and for 1 week at 50° C. The solids were isolated from the mother liquor and analyzed by HT-XRPD after mild drying under ambient conditions (ambient) and after thorough drying under vacuum (vacuum). All the solids were exposed to accelerated ageing conditions (2 days at 40° C./70% RH) and re-analyzed by HT-XRPD.
(§1) The competitive slurry experiments were performed in ethanol/water mixtures and methanol/water mixtures within a water activity range of 0-0.2. Approximately 50 mg of each pracinostat dihydrochloride solid form 2.5 hydrate and monohydrate were solid dosed in 1.8 mL HPLC vials. Aliquots of 100 μL of the different water mixtures were added until about half of the amount of solid was in solution. Subsequently, the vials were stirred for one week at 5° C., 21° C. and 50° C. Upon completion of the equilibration time, the solids were separated from the liquids by centrifugation. The solids were dried under ambient conditions (ambient) and dried under vacuum (vacuum) before HT-XRPD analysis. All solid samples were exposed to accelerated gaining conditions (40° C. and 70% RH) for two days (AAC). The water content in the liquid phase was determined Karl Fischer analysis.

The nature of series [2]: Moisture sorption study (DVS analysis). The procedure: A moisture sorption study was performed to investigate the physical stability of 3-[2-butyl-1-(2-diethylamino-ethyl)-1H-benzoimidazol-5-yl]-N-hydroxy-acrylamide dihydrochloride 2.5 hydrate upon exposure to several relative humidity profiles. HT-XRPD analyses were performed on the solid material obtained after the DVS analyses. The analytical method is described herein.
Differences in hygroscopicity (moisture uptake) of the various forms of a solid material provided a measure of their relative stability at increasing relative humidity. Moisture sorption isotherms of small samples were obtained using a DVS-1 system from Surface Measurement Systems (London, UK); this instrument is suitable for use with as little as a few milligrams of sample, with an accuracy of 0.1 μg. Several humidity profile were applied as described in each individual experiment. Steps consisted of 10% RH. Weight equilibration per step was set with a minimum holding time of 1 hour (10% relative humidity step). At the end of the DVS experiments, the recovered solid material was measured by HT-XRPD.

Series [3] in a line: Variable temperature XRPD. As to conditions: 25° C. to 143° C., cooling to 25° C., reheating to 155° C. How it is done: To investigate the phase interconversions upon temperature exposure, a variable temperature XRPD analysis on 3-[2-butyl-1-(2-diethylamino-ethyl)-1H-benzoimidazol-5-yl]-N-hydroxy-acrylamide dihydrochloride 2.5 hydrate was performed. The experiment was run between 25° C. to 130° C. with cooling back to 25° C. at the end. […] After reaching a temperature of 130° C., the material was cooled back to 25° C.
A variable temperature XRPD experiment with 3-[2-butyl-1-(2-diethylamino-ethyl)-1H-benzoimidazol-5-yl]-N-hydroxy-acrylamide dihydrochloride monohydrate was conducted to investigate the solid form conversion that occurred upon heating. The experiment was run between 25° C. to 143° C. followed by cooling to 25° C., reheating to 155° C. and then cooling again to 25° C. (see FIG. 19).
For variable humidity and temperature experiments the ANSYCO HT chamber was used, installed within the D8 Advance system diffractometer (Bruker) designed with Brag-Brentano geometry and equipped with LynxEye solid state detector. The radiation used for collecting the data was CuKα1 (λ=1.54056 Å) monochromatized by germanium crystal. The material was placed on a fixed sample holder that was mounted inside the chamber.
VT-XRPD: The temperature variation rate was 10° C./min and the equilibration time, prior to starting the data collection at each temperature, was 8 min. The patterns were collected in the range 4-41°2θ, with a step of 0.01573°2θ and measuring time per step of 1 sec. The data collection time, per temperature, was 40 min.

The nature of series [4]: Moisture sorption study (DVS analysis). The source holds these as a separate data set.
Series [5] is described as follows: Thermocycling studies. As to conditions: ethanol, absolute or extra dry; dihydrochloride monohydrate. The procedure:
The suspensions were cycled between 5° C. and 50° C. followed by aging at 25° C. for 72 hours. […] Upon completion of the incubation time, the solids were collected, dried under ambient conditions and dried under deep vacuum before being analyzed by HT-XRPD. All the measured solids were exposed to accelerated ageing conditions (2 days at 40° C./70% RH) followed by re-analysis by HT-XRPD.

The nature of series [6]: Competitive slurry conversion (thermodynamic stability) of Form 1 and Form 3. The conditions noted are these: one week slurry. How it is done: as §1, with “Approximately 50 mg of each solid form were solid dosed in a standard HPLC vial followed by solvent addition. The competitive” for “The competitive”, “in solution. […] Upon completion” for “in solution. Subsequently, the vials were stirred for one week at 5° C., 21° C. and 50° C. Upon completion”

The mark [7] stands for this setting: cycles 45-95-0-45% RH, two cycles.
Setting [8] is: second DVS: 45% to 95% RH, held at 95% RH for 10 hours.

`CCCCc1nc2cc(/C=C/C(=O)NO)ccc2n1CCN(CC)CC` [Form 1, 3-[2-butyl-1-(2-diethylamino-ethyl)-1H-benzoimidazol-5-yl]-N-hydroxy-acrylamide dihydrochloride monohydrate]: the “solid form after accelerated aging conditions” value in series [1] (2 days at 40° C./70% RH) is listed as “converted to the 2.5 hydrate Form 3”. Further, the Stability result in series [1] (physical stability under accelerated aging conditions (40° C./70% RH) for 48 hours, dihydrochloride monohydrate) was “Unstable”. Also, the “solid form recovered after DVS” value in series [2] (45-95-0% RH with aging for 5 hours at 0% RH, HT-XRPD) was 2.5 hydrate (Form 3) with a small contamination of the hemihydrate (Form 10). Moreover, in series [2] (setting [7]), the “water uptake between 85-95% RH” value turned out to be 17%, the “weight loss during desorption between 15-0% RH” value came to 10% and the “weight loss during desorption between 95-75% RH” value was 7%. Also, the “water uptake at 75% RH” value in series [2] (first cycle of 45-95-0-45% RH) is listed as 18%. In addition, in series [2] (setting [8]), the “water uptake between 85-95% RH” value is 18% and the “weight loss after aging at 95% RH for 2 hours” value is “about 12%”. Moreover, in series [3], the “solid form conversion upon heating” value was “No solid form conversions were observed”. Moreover, the “relative humidity level above which conversion to the 2.5 hydrate (Form 3) occurs” value in series [4] (DVS 45-95% RH) is listed as “above 85%”. Also, the hygroscopicity result in series [4] (DVS, dihydrochloride monohydrate) was “hygroscopic”. For the same compound, in series [4] (two sorption-desorption cycles 45-95-0-95-0-45% RH, HT-XRPD, dihydrochloride monohydrate), the “solid form recovered after DVS” value is given as “conversion mainly to the 2.5 hydrate (Form 3)”. Also, in series [5], the “solid form after thermocycling” value is “transformed into the anhydrous Form 9”. Further, the “water content of the solvent system at which the form is the most stable / obtained form” value in series [6] (ethanol/water, 5° C. (below ambient), dihydrochloride monohydrate) is reported as “below 2%”. Also, the “water content of the solvent system at which the form is the most stable form” value in series [6] (ethanol/water, 50° C. (elevated temperatures), dihydrochloride monohydrate) is on record as 2-4%. Besides, the “water content of the solvent system at which the form is the most stable form” value in series [6] (methanol/water, 5° C.) is given as “below 6%”.
